Publication PMC6712804 (BMC Cancer, 2019)
Where “and” joins values, the source holds several entries; their conditions need not be identical. Identical values can stand only once.

Columns and labels:
[1] = tested on: OXPHOS (OCR) and glycolysis (ECAR) in BE-2c cells; experiment: Metabolic flux analysis and cell energy phenotype (XFp Seahorse); assay type: cell-based; settings: 18 h, metformin 5 mM
Experimental: Six wells of an XFp culture plate were seeded with 15,000 BE-2c cells/well in 80 μL DMEM with 10% FBS. […] The XFp Cell Energy Phenotype assay utilizes oligomycin as an inhibitor of ATP synthase and FCCP which is a mitochondrial uncoupling reagent. Oligomycin inhibits mitochondrial ATP production leading to a compensatory increase in glycolysis to meet energy demands. FCCP depolarizes the mitochondrial membrane driving the oxygen consumption rates higher as mitochondria restore polarization. The results were graphed on a grid indicating degree of aerobic/glycolytic metabolism and energetic/quiescent phenotypes.

[2] = tested on: MYCN, MCL-1, PARP, LC3I, LC3II, BRD-4, bcl-2 and BAX gene expression in BE-2c cells; experiment: RNAseq gene expression analysis; assay type: cell-based; parameters: RNAseq expression value, MYCN gene / RNAseq expression value, MCL-1 gene / RNAseq expression value, LCII gene / RNAseq expression value, LCI gene / RNAseq expression value, BRD-4 gene / RNAseq expression value, Bcl-2 gene / RNAseq expression value, BAX gene: unit not given here; settings: 18 h, TEM alone 1 μM
Experimental: Total RNA was extracted using the RNeasy Micro Kit (Qiagen, Germantown, MD). Nano Drop was used to measure RNA concentration and purity and integrity was evaluated using Agilent Bioanalyzer System (Agilent Technologies, Santa Clara, CA). RNA sequencing and library preparation was performed using Maestro TruSeq Application (Perkin Elmer, Waltham, MA). Parameters used were optimized for 50 bp single-end reads with 20 million reads per sample. […] Gene expression analysis are reported for those pathways where protein analysis was performed (MYCN, MCL-1, PARP, LC3I, LC3II, BRD-4, bcl-2, and BAX).

[3] = tested on: BE2-c subcutaneous tumors; experiment: Anti-tumor activity in BE2-c tumor bearing NSG mice; assay type: in vivo; settings: follow up study, dosing three times per week
Experimental: A follow up study of the combination integrated control groups and modified dosing of MP1 plus TEM to three times per week at the doses described above. […] Tumor measurements were performed daily and treatments began on the first day the tumor achieved 2 mm^3 in size.

[4] = compared to untreated controls
Experimental: NSG mice were injected subcutaneously with 5 × 10^5 BE2-c cells in a 50:50 PBS/Matrigel® solution. […] Bone marrow was collected at necropsy for a CFU-GM assay to assess bone marrow toxicity.

| Compound | Effect on OXPHOS and glycolysis [1] | Change (fold change treatment over control), BAX gene [2] | Change (fold change treatment over control), BRD-4 gene [2] | Change (fold change treatment over control), Bcl-2 gene [2] | Change (fold change treatment over control), MCL-1 gene [2] | Change (fold change treatment over control), MYCN gene [2] | Change (fold change treatment over control), PARP1 gene [2] | RNAseq expression value, BAX gene ([2]; replicates #1-#3) | RNAseq expression value, BRD-4 gene ([2]; replicates #1-#3) | RNAseq expression value, Bcl-2 gene ([2]; replicates #1-#3) | RNAseq expression value, LCI gene ([2]; replicates #1-#3) | RNAseq expression value, LCII gene ([2]; replicates #1-#3) | RNAseq expression value, MCL-1 gene ([2]; replicates #1-#3) | RNAseq expression value, MYCN gene ([2]; replicates #1-#3) | RNAseq expression value, PARP1 gene ([2]; replicates #1-#3) | Complete responses [3] | Bone marrow toxicity (CFU-GM assay) [4] |
| --- | --- | --- | --- | --- | --- | --- | --- | --- | --- | --- | --- | --- | --- | --- | --- | --- | --- |
| CN(C)C(=N)N=C(N)N [metformin] | uncoupled OXPHOS metabolism without effects on glycolysis |  |  |  |  |  |  |  |  |  |  |  |  |  |  |  |  |
| CO[C@H]1C[C@@H]2CC[C@@H](C)[C@@](O)(O2)C(=O)C(=O)N2CCCC[C@H]2C(=O)O[C@H]([C@H](C)C[C@@H]2CC[C@@H](OC(=O)C(C)(CO)CO)[C@H](OC)C2)CC(=O)[C@H](C)/C=C(\C)[C@@H](O)[C@@H](OC)C(=O)[C@H](C)C[C@H](C)/C=C/C=C/C=C/1C [TEM, temsirolimus] |  | −1.14 | −1.06 | 1.45 | −1.12 | 1.0 | −1.2 | 42.7 and 37.3 and 40.6 | 70.4 and 71.4 and 72.7 | 49.2 and 52.0 and 47.7 | 5.1 and 4.4 (2×) | 92.7 and 92.5 and 89.7 | 281 and 282 and 276 | 2264 and 2140 and 2232 | 580 and 617 and 599 | no complete responses | unaffected |
